Key:
[1] = system: neutrophil migration into the pleural cavity; assay: pleural neutrophil migration inhibition assay; format: in vivo, rat; conditions: for dose range of activity in the neutrophil assay: compared together with Peak 12
Protocol: Neutrophil Migration Inhibition Assay. MAIF anti-inflammatory activity was determined in a pleural neutrophil migration inhibition assay. Female, white laboratory rats weighing 120 to 150 g were injected intrapleurally with 1.0 ml of 1% kappa carrageenin in PBS to induce neutrophil migration into the pleural cavity. Immediately, the rats were injected intraperitoneally with 0.5 ml doses of […] samples in PBS. PBS was used as a control. After four hours, the rats were sacrificed, pleural exudates were collected, and the emigrated neutrophils were counted.

[2] = system: carrageenan-induced footpad edema; assay: quantitative rat carrageenan footpad assay with 125I-HSA; format: in vivo; conditions: given 30 minutes prior to carrageenan; aspirin orally 200 mg per kilogram, MAIF intraperitoneally, all dosages
Protocol: Peak I from the G-10 column, supplied by Stolle Milk Biologics International, was prepared according to the methods described in U.S. Pat. No. 4,956,349. Lactose, obtained from commercial sources, was used as placebo. Aspirin was used as a positive control. Aspirin was dissolved in water and given orally by gastric gavage at the ratio of 200 mg per kilogram, a dose known to be active in the assay. […] The footpad assay was modified by using isotopically labeled human serum albumin (^125I-HSA) that localizes in the carrageenan-induced lesion in direct proportion to the volume of the exudate. By determining the total radioactive count in the footpad and comparing this to the counts in a known volume of plasma from the injected animal, a direct measurement of edema in microliters of plasma equivalents is obtained. ^125I-HSA was injected intravenously at a dose of 1.0 microcurie per rat. Female Dark Agouti rats were used. […]
To conduct the carrageenan footpad assay, 0.1 ml of 2% carrageenan was injected subcutaneously into each hind foot pad of an anesthetized rat. […] Both hind feet were then removed and the levels of radioactivity in each foot and in the 200 μl plasma standard were measured in an automated gamma counter. From these measurements the volume of edema in each foot was calculated and expressed in microliters.

[3] = system: circulating neutrophils and lymphocytes; assay: effect on circulating leucocytes; format: in vivo, rat; conditions: other anti-inflammatory/immunomodulatory agents
Protocol: Two experiments were done. In the first, the MAIF preparation was administered intravenously at a dose of 40 mg/rat to one group of 6 animals and a control group was injected with saline. Blood samples were obtained at baseline, 1, 4, and 24 hours after treatment.
A further dose-response study was carried out in which a group of rats were injected intravenously with saline, 5, 10 or 20 mg of the MAIF preparation. Blood from each rat had been taken 7 days previously to provide baseline values and was taken again 4 hours after the injection of MAIF. Included on the graph are the results obtained from the sample taken 4 hours after the administration of 40 mg the MAIF preparation (see FIG. 31).

CC(=O)Oc1ccccc1C(=O)O [aspirin]
dose range of activity in the neutrophil assay [1]: active in the high microgram to milligram range | footpad edema [2]: inhibited

O=P1(N(CCCl)CCCl)NCCCO1 (stereo not drawn) [cyclophosphamide]
effect on circulating leucocytes in the rat [3]: depletes both circulating lymphocytes and neutrophils

COc1ccc2c(c1)c(CC(=O)O)c(C)n2C(=O)c1ccc(Cl)cc1 [indomethacin]
dose range of activity in the neutrophil assay [1]: active in the high microgram to milligram range

O=C(O)c1cc(=O)[nH]c(=O)[nH]1 [orotic acid]
inhibitory activity on the migration of rat neutrophils ([1]; in the doses tested): Neither the sialic acid nor the orotic acid exhibited any inhibitory activity

cyclosporin A
effect on circulating leucocytes in the rat [3]: causes an increase in the number of circulating neutrophils but lymphocyte numbers are either increased or not affected depending on the dose

From patent US10716850B2, “Anti-inflammatory factor retentate, method of isolation, and use” (Wellin, Inc., priority 2014, dated 2020)
